Results taken from ChEMBL document CHEMBL4000183, “Phenylpropanoids from Juglans mandshurica exhibit cytotoxicities on liver cancer cell lines through apoptosis induction” (Bioorg Med Chem Lett, 2017).
Activity calls are given as the source filed them. No cut-off for these calls is given here.

What was measured:
[1] = system: HepG2; test: Cytotoxic activity against human HepG2 cells assessed as growth inhibition after 48 hrs by MTT assay; format: functional, cell-based; settings: for IC50: Homo sapiens, HepG2, 48 h
[2] = system: Hep 3B2; test: Cytotoxic activity against human Hep3B cells assessed as growth inhibition after 48 hrs by MTT assay; format: functional, cell-based; settings: for IC50: Homo sapiens, Hep3B, 48 h
[3] = system: Hep 3B2; test: Induction of apoptosis in human Hep3B cells assessed as increase in Bax level at 70 uM after 48 hrs by Western blot analysis; format: functional, cell-based
[4] = system: HepG2; test: Induction of apoptosis in human HepG2 cells assessed as decrease in pro-caspase 7 level at 60 uM after 48 hrs by Western blot analysis; format: functional, cell-based
[5] = system: HepG2; test: Induction of apoptosis in human HepG2 cells assessed as formation of apoptotic bodies at 60 uM after 48 hrs by AO staining-based phase contrast microscopic analysis; format: functional, cell-based
[6] = system: Hep 3B2; test: Cytotoxic activity against human Hep3B cells assessed as growth inhibition at 6.25 uM after 48 hrs by MTT assay; format: functional; settings: read-out: GI
[7] = system: HepG2; test: Induction of apoptosis in human HepG2 cells assessed as increase in Bax level at 60 uM after 48 hrs by Western blot analysis; format: functional, cell-based
[8] = system: HepG2; test: Cytotoxic activity against human HepG2 cells assessed as growth inhibition at 6.25 uM after 48 hrs by MTT assay; format: functional; settings: HepG2, 48 h, read-out: GI
[9] = system: Hep 3B2; test: Induction of apoptosis in human Hep3B cells assessed as increase in cleaved-caspase 7 level at 70 uM after 48 hrs by Western blot analysis; format: functional, cell-based
[10] = system: Hep 3B2; test: Cytotoxic activity against human Hep3B cells assessed as growth inhibition at 25 uM after 48 hrs by MTT assay; format: functional; settings: read-out: GI
[11] = system: HepG2; test: Induction of apoptosis in human HepG2 cells assessed as decrease in Bcl-2 level at 60 uM after 48 hrs by Western blot analysis; format: functional, cell-based
[12] = system: Hep 3B2; test: Induction of apoptosis in human Hep3B cells assessed as chromatin condensation at 70 uM after 48 hrs by AO staining-based phase contrast microscopic analysis; format: functional, cell-based
[13] = system: HepG2; test: Induction of apoptosis in human HepG2 cells assessed as chromatin condensation at 60 uM after 48 hrs by AO staining-based phase contrast microscopic analysis; format: functional, cell-based
[14] = system: HepG2; test: Induction of apoptosis in human HepG2 cells assessed as nuclear fragmentation at 60 uM after 48 hrs by AO staining-based phase contrast microscopic analysis; format: functional, cell-based
[15] = system: HepG2; test: Induction of apoptosis in human HepG2 cells assessed as increase in cleaved-caspase 9 level at 60 uM after 48 hrs by Western blot analysis; format: functional, cell-based
[16] = system: Hep 3B2; test: Cytotoxic activity against human Hep3B cells assessed as growth inhibition at 50 uM after 48 hrs by MTT assay; format: functional; settings: read-out: GI
[17] = system: Hep 3B2; test: Cytotoxic activity against human Hep3B cells assessed as growth inhibition at 12.5 uM after 48 hrs by MTT assay; format: functional; settings: read-out: GI
[18] = system: HepG2; test: Induction of apoptosis in human HepG2 cells assessed as decrease in pro-caspase 9 level at 60 uM after 48 hrs by Western blot analysis; format: functional, cell-based
[19] = system: HepG2; test: Cytotoxic activity against human HepG2 cells assessed as growth inhibition at 100 uM after 48 hrs by MTT assay; format: functional; settings: HepG2, 48 h, read-out: GI
[20] = system: HepG2; test: Cytotoxic activity against human HepG2 cells assessed as growth inhibition at 50 uM after 48 hrs by MTT assay; format: functional; settings: HepG2, 48 h, read-out: GI
[21] = system: Hep 3B2; test: Induction of apoptosis in human Hep3B cells assessed as increase in cleaved PARP level at 70 uM after 48 hrs by Western blot analysis; format: functional, cell-based
[22] = system: Hep 3B2; test: Induction of apoptosis in human Hep3B cells assessed as decrease in pro-caspase 9 level at 70 uM after 48 hrs by Western blot analysis; format: functional, cell-based
[23] = system: Hep 3B2; test: Induction of apoptosis in human Hep3B cells assessed as nuclear fragmentation at 70 uM after 48 hrs by AO staining-based phase contrast microscopic analysis; format: functional, cell-based
[24] = system: HepG2; test: Induction of apoptosis in human HepG2 cells assessed as decrease in PARP level at 60 uM after 48 hrs by Western blot analysis; format: functional, cell-based
[25] = system: HepG2; test: Cytotoxic activity against human HepG2 cells assessed as growth inhibition at 25 uM after 48 hrs by MTT assay; format: functional; settings: HepG2, 48 h, read-out: GI
[26] = system: Hep 3B2; test: Cytotoxic activity against human Hep3B cells assessed as growth inhibition at 100 uM after 48 hrs by MTT assay; format: functional; settings: read-out: GI
[27] = system: Hep 3B2; test: Induction of apoptosis in human Hep3B cells assessed as increase in cleaved-caspase 9 level at 70 uM after 48 hrs by Western blot analysis; format: functional, cell-based
[28] = system: HepG2; test: Induction of apoptosis in human HepG2 cells assessed as increase in cleaved PARP level at 60 uM after 48 hrs by Western blot analysis; format: functional, cell-based
[29] = system: Hep 3B2; test: Induction of apoptosis in human Hep3B cells assessed as decrease in pro-caspase 7 level at 70 uM after 48 hrs by Western blot analysis; format: functional, cell-based
[30] = system: Hep 3B2; test: Induction of apoptosis in human Hep3B cells assessed as decrease in PARP level at 70 uM after 48 hrs by Western blot analysis; format: functional, cell-based
[31] = system: HepG2; test: Cytotoxic activity against human HepG2 cells assessed as growth inhibition at 12.5 uM after 48 hrs by MTT assay; format: functional; settings: HepG2, 48 h, read-out: GI
[32] = system: HepG2; test: Induction of apoptosis in human HepG2 cells assessed as increase in cleaved-caspase 7 level at 60 uM after 48 hrs by Western blot analysis; format: functional, cell-based
[33] = system: Hep 3B2; test: Induction of apoptosis in human Hep3B cells assessed as cell shrinkage at 70 uM after 48 hrs by AO staining-based phase contrast microscopic analysis; format: functional
[34] = system: Hep 3B2; test: Induction of apoptosis in human Hep3B cells assessed as decrease in Bcl-2 level at 70 uM after 48 hrs by Western blot analysis; format: functional, cell-based

Compound: COC(=O)c1ccc(OCCC(C)CO)cc1 (stereo unspecified)
- growth inhibition (GI) [1]: -11.27%
- growth inhibition (GI) [2]: 19.85%

Compound: CC(CO)CCOc1ccc(/C=C/CO)cc1 (stereo unspecified)
- growth inhibition (GI) [1]: 9.26%
- growth inhibition (GI) [2]: 7.75%

Compound: CC(CO)CCOc1ccc(/C=C/C=O)cc1 (stereo unspecified)
- Activity [3]: Active
- Activity [4]: Active
- Activity [5]: Active
- inhibition of growth at 6.25 µM [6]: -4.07%
- Activity [7]: Active
- inhibition of growth at 6.25 µM [8]: 6.6%
- Activity [9]: Active
- inhibition of growth at 25 µM [10]: 0.48%
- Activity [11]: Active
- Activity [12]: Active
- Activity [13]: Active
- Activity [14]: Active
- Activity [15]: Active
- inhibition of growth at 50 µM [16]: 28.9%
- growth inhibition (GI) [1]: 83.9%
- IC50 [1]: 58.6 µM
- inhibition of growth at 12.5 µM [17]: -2.42%
- Activity [18]: Active
- growth inhibition (GI) [2]: 95.08%
- IC50 [2]: 69.9 µM
- inhibition of growth at 100 µM [19]: 80%
- inhibition of growth at 50 µM [20]: 57%
- Activity [21]: Active
- Activity [22]: Active
- Activity [23]: Active
- Activity [24]: Active
- inhibition of growth at 25 µM [25]: 14.1%
- inhibition of growth at 100 µM [26]: 85.8%
- Activity [27]: Active
- Activity [28]: Active
- Activity [29]: Active
- Activity [30]: Active
- inhibition of growth at 12.5 µM [31]: 0.24%
- Activity [32]: Active
- Activity [33]: Active
- Activity [34]: Active

Compound: O=c1[nH]cc(F)c(=O)[nH]1 [FLUOROURACIL]
- inhibition of growth at 6.25 µM [6]: 48.9%
- inhibition of growth at 6.25 µM [8]: 19.3%
- inhibition of growth at 25 µM [10]: 51.7%
- inhibition of growth at 50 µM [16]: 54.5%
- growth inhibition (GI) [1]: 51.78%
- IC50 [1]: 32.6 to 49.7 µM
- inhibition of growth at 12.5 µM [17]: 50.6%
- growth inhibition (GI) [2]: 56.74%
- IC50 [2]: 10.5 to 11.9 µM
- inhibition of growth at 100 µM [19]: 51.2%
- inhibition of growth at 50 µM [20]: 47.3%
- inhibition of growth at 25 µM [25]: 39.2%
- inhibition of growth at 100 µM [26]: 57%
- inhibition of growth at 12.5 µM [31]: 32.9%

Compound: CC(/C=C\Oc1ccc(/C=C/CO)cc1)CO (stereo unspecified)
- growth inhibition (GI) [1]: 7.81%
- growth inhibition (GI) [2]: -15.72%
